Results published in US12319672B2, “Alpha-D-galactopyranoside derivatives” (Idorsia Pharmaceuticals Ltd, priority 2019, dated 2025).

Tests used:
human Gal-3 (hGal-3) = human Gal-3 (hGal-3) (Homo sapiens (Human), UniProt P17931); test: Competitive binding assay: binding of biotinylated hGal-3 to microplate-adsorbed asialofetuin (ASF); conditions: Activity on hGal-3; mean values of several measurements
Procedure, shortened: (§1)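 Spectrophotometric readout (streptavidin-peroxidase, ABTS) of biotinylated galectin retained on ASF-coated wells. Biotinylated hGal-1 or hGal-3, 300-1000 ng/mL, co-incubated with test compound 3 h at 4° C, then washed. Mean IC50 from repeat runs.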

human Gal-1 (hGal-1) = test: Competitive binding assay: binding of biotinylated hGal-1 to microplate-adsorbed asialofetuin (ASF); conditions: Activities on hGal-1; mean values of several measurements
Chain of human Gal-1 (hGal-1) (P09382 2-135 limits assumed): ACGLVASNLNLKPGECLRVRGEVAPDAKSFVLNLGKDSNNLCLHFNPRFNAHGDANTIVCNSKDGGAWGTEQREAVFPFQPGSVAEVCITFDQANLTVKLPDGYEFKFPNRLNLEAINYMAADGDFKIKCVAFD
Procedure, shortened: as §1

Chain of human Gal-3 (hGal-3) (P17931 whole entry): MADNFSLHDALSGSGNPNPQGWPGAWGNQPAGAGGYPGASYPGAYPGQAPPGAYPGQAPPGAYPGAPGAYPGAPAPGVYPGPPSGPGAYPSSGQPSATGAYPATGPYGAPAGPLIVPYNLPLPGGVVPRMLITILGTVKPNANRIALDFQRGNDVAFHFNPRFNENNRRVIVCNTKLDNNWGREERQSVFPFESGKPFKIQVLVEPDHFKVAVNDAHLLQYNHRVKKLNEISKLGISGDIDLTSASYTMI

Row | Compound | IC50 (human Gal-3 (hGal-3)) [µM] | IC50 (human Gal-1 (hGal-1)) [µM]
1 | CO[C@@H]1[C@@H](n2cc(-c3ccc(C)c(F)c3F)nn2)[C@@H](O)[C@@H](CO)O[C@@H]1Cc1cc(C2(C)CCOCC2)on1 [Ex 1.270] | 0.038 | 3.55
2 | CO[C@@H]1[C@@H](n2cc(-c3ccc(C)c(F)c3F)nn2)[C@@H](O)[C@@H](CO)O[C@@H]1Cc1cc(-c2ccc(F)c(F)c2F)on1 [Ex 1.229] | 0.53 | > 100
3 | CO[C@@H]1[C@@H](n2cc(-c3ccc(C)c(F)c3F)nn2)[C@@H](O)[C@@H](CO)O[C@@H]1Cc1cc(C(C)(C)O)on1 [Ex 1.237] | 0.075 | 4.22
4 | CO[C@@H]1[C@@H](n2cc(-c3ccc(Cl)c(F)c3)nn2)[C@@H](O)[C@@H](CO)O[C@@H]1Cc1cc(C2CCN(S(C)(=O)=O)CC2)on1 [Ex 1.156] | 0.031 | 0.94
5 | CO[C@@H]1[C@@H](n2cc(-c3ccc(C)c(F)c3F)nn2)[C@@H](O)[C@@H](CO)O[C@@H]1Cc1cc(C2CCOCC2)on1 [Ex 1.186] | 0.085 | 6.2
6 | CO[C@@H]1[C@@H](n2cc(-c3ccc(Cl)c(F)c3F)nn2)[C@@H](O)[C@@H](CO)O[C@@H]1Cc1cc(C2(C)CCCC2)no1 [Ex 1.289] | 0.059 | 1.77
7 | CCOC(=O)N1CCC(c2cc(C[C@H]3O[C@H](CO)[C@H](O)[C@H](n4cc(-c5cc(F)cc(Cl)c5)nn4)[C@H]3OC)no2)CC1 [Ex 1.200] | 0.12 | 1.51
8 | COc1cc(F)c(F)cc1-c1cn([C@H]2[C@@H](O)[C@@H](CO)O[C@H](CC3CC(C4CCN(C(=O)OC(C)(C)C)CC4)=NO3)[C@@H]2O)nn1 (stereo partly shown) [Ex 1.106] | 0.49 | 1.53
9 | CO[C@@H]1[C@@H](n2cc(-c3ccc(C)c(F)c3F)nn2)[C@@H](O)[C@@H](CO)O[C@@H]1Cc1cc(C2(C#N)CCCC2)no1 [Ex 1.292] | 0.051 | 3.54

More lines, now with the values ahead:

Row | IC50 (human Gal-3 (hGal-3)) [µM] | IC50 (human Gal-1 (hGal-1)) [µM] | Compound
10 | 0.2 | 27.3 | CC(C)C(=O)O[C@@H]1[C@@H](n2cc(-c3cc(F)c(F)c(F)c3)nn2)[C@@H](O)[C@@H](CO)O[C@@H]1Cc1cc(C2CCN(C(=O)OC(C)(C)C)CC2)on1 [Example 2.22, tert-butyl 4-(3-(((2R,3R,4S,5R,6R)-5-hydroxy-6-(hydroxymethyl)-3-(isobutyryloxy)-4-(4-(3,4,5-trifluorophenyl)-1H-1,2,3-triazol-1-yl)tetrahydro-2H-pyran-2-yl)methyl)isoxazol-5-yl)piperidine-1-carboxylate]
11 | 0.15 | 2.49 | CC(=O)N1CCC(C2=NOC(C[C@H]3O[C@H](CO)[C@H](O)[C@H](n4cc(-c5cc(F)c(F)c(F)c5)nn4)[C@H]3O)C2)CC1 (mixture of isomers) [Example 3.03, 1-(4-((RS)-5-(((2R,3R,4R,5R,6R)-3,5-dihydroxy-6-(hydroxymethyl)-4-(4-(3,4,5-trifluorophenyl)-1H-1,2,3-triazol-1-yl)tetrahydro-2H-pyran-2-yl)methyl)-4,5-dihydroisoxazol-3-yl)piperidin-1-yl)ethan-1-one]
12 | 0.26 | 5.09 | CO[C@@H]1[C@@H](n2cc(-c3cc(F)c(F)c(F)c3)nn2)[C@@H](O)[C@@H](CO)O[C@@H]1Cc1cc(C2CCN(C)CC2)on1 [Example 3.39, (2R,3R,4S,5R,6R)-2-(hydroxymethyl)-5-methoxy-6-((5-(1-methylpiperidin-4-yl)isoxazol-3-yl)methyl)-4-(4-(3,4,5-trifluorophenyl)-1H-1,2,3-triazol-1-yl)tetrahydro-2H-pyran-3-ol]
13 | 0.11 | 43.8 | CC(C)(C)OC(=O)NC1CCC(c2cc(C[C@H]3O[C@H](CO)[C@H](O)[C@H](n4cc(-c5cc(F)c(F)c(F)c5)nn4)[C@H]3O)no2)CC1 (stereo partly shown) [Ex 1.80]
14 | 0.057 | 0.25 | CO[C@@H]1[C@@H](n2cc(-c3ccc(F)c(F)c3F)nn2)[C@@H](O)[C@@H](CO)O[C@@H]1Cc1cc(C(C)(C)C)no1 [Ex 1.250]
15 | 0.53 | 2.55 | CO[C@@H]1[C@@H](n2cc(-c3cc(F)c(F)c(F)c3)nn2)[C@@H](O)[C@@H](CO)O[C@@H]1CC1CC(C(C)(C)CO)=NO1 (stereo partly shown) [Ex 1.281]
16 | 0.65 | 3.2 | CO[C@@H]1[C@@H](n2cc(-c3cc(F)c(F)c(F)c3)nn2)[C@@H](O)[C@@H](CO)O[C@@H]1CC1CC(c2cncnc2)=NO1 (stereo partly shown) [Ex 1.15]
17 | 0.089 | 0.56 | CO[C@@H]1[C@@H](n2cc(-c3cc(F)c(F)c(F)c3)nn2)[C@@H](O)[C@@H](CO)O[C@@H]1C[C@@H]1CC(C2CCN(C(=O)OC(C)(C)C)CC2)=NO1 [Ex 1.48]
18 | 0.69 | 20.3 | CO[C@@H]1[C@@H](n2cc(-c3cc(F)c(F)c(F)c3)nn2)[C@@H](O)[C@@H](CO)O[C@@H]1Cn1cc(-c2ccc3[nH]c(=O)oc3c2)nn1 [Example 4.02, 6-(1-(((2R,3R,4S,5R,6R)-5-hydroxy-6-(hydroxymethyl)-3-methoxy-4-(4-(3,4,5-trifluorophenyl)-1H-1,2,3-triazol-1-yl)tetrahydro-2H-pyran-2-yl)methyl)-1H-1,2,3-triazol-4-yl)benzo[d]oxazol-2(3H)-one]
19 | 0.035 | 0.64 | CO[C@@H]1[C@@H](n2cc(-c3cc(F)c(F)c(F)c3)nn2)[C@@H](O)[C@@H](CO)O[C@@H]1CC1CN(C2CCN(S(=O)(=O)CC(C)C)CC2)C(=O)O1 (mixture of isomers) [Example 5.18, (RS)-5-(((2R,3R,4S,5R,6R)-5-hydroxy-6-(hydroxymethyl)-3-methoxy-4-(4-(3,4,5-trifluorophenyl)-1H-1,2,3-triazol-1-yl)tetrahydro-2H-pyran-2-yl)methyl)-3-(1-(isobutylsulfonyl)piperidin-4-yl)oxazolidin-2-one]
20 | 0.013 | 0.12 | CO[C@@H]1[C@@H](n2cc(-c3cc(F)c(F)c(F)c3)nn2)[C@@H](O)[C@@H](CO)O[C@@H]1Cc1cn(C2CCS(=O)(=NCc3ccccc3)CC2)nn1 (stereo partly drawn) [Example 4.28, 1-(benzylimino)-4-(4-(((2R,3R,4S,5R,6R)-5-hydroxy-6-(hydroxymethyl)-3-methoxy-4-(4-(3,4,5-trifluorophenyl)-1H-1,2,3-triazol-1-yl)tetrahydro-2H-pyran-2-yl)methyl)-1H-1,2,3-triazol-1-yl)hexahydro-1l6-thiopyran 1-oxide]
21 | 0.18 | 2.38 | CO[C@@H]1[C@@H](n2cc(-c3cc(F)c(F)c(F)c3)nn2)[C@@H](O)[C@@H](CO)O[C@@H]1Cn1cnc(C(C)(C)C)c1 [Example 6.04, (2R,3R,4S,5R,6R)-6-((4-(tert-butyl)-1H-imidazol-1-yl)methyl)-2-(hydroxymethyl)-5-methoxy-4-(4-(3,4,5-trifluorophenyl)-1H-1,2,3-triazol-1-yl)tetrahydro-2H-pyran-3-ol]
22 | 0.19 | 4.58 | OC[C@H]1O[C@H](Cc2cc(C3CCC(O)CC3)on2)[C@H](O)[C@@H](n2cc(-c3cc(F)c(F)c(F)c3)nn2)[C@H]1O (stereo partly drawn) [Example 2.14, (2R,3R,4R,5R,6R)-2-((5-((1r,4r)-4-hydroxycyclohexyl)isoxazol-3-yl)methyl)-6-(hydroxymethyl)-4-(4-(3,4,5-trifluorophenyl)-1H-1,2,3-triazol-1-yl)tetrahydro-2H-pyran-3,5-diol]
23 | 0.11 | 1.77 | CO[C@@H]1[C@@H](n2cc(-c3cc(F)c(F)c(F)c3)nn2)[C@@H](O)[C@@H](CO)O[C@@H]1Cc1cc(C2(C)CCOCC2)no1 [Ex 1.282]
